Data from patent publication US5393738A (Sandoz, Ltd., priority 1986, dated 1995).
Where two headings read alike, the source gives them in different places.

Columns and labels:
[1] = Stability of SMS in gastric juices; assay type: in vitro ADME
[2] = Biopharmaceutical properties of SMS: first pass effect and excretion; assay type: in vivo; conditions: rat

Q: With `C[C@@H](O)[C@@H]1NC(=O)[C@H](CCCCN)NC(=O)[C@@H](Cc2c[nH]c3ccccc23)NC(=O)[C@H](Cc2ccccc2)NC(=O)[C@@H](NC(=O)[C@H](N)Cc2ccccc2)CSSC[C@@H](C(=O)N[C@H](CO)[C@@H](C)O)NC1=O` [SMS, octreotide] as the compound, how does the “stability in gastric juices” value [1] read?
A: Its value is “extremely stable”.

Q: And the dose excreted ([2]; bile, read-out: excreted as the unchanged drug in the bile)?
A: Its dose excreted is ~80%.

Q: And the dose excreted ([2]; urine, read-out: excreted as the unchanged drug in the urine)?
A: The dose excreted was ~20%.
